± gives the expanded uncertainty stated by the source.
Columns and labels:
[1] = 101 kPa, Liquid; for speed of sound: Pulse-echo method; for mass density: Vibrating tube method
[2] = xn = mol fraction of the nth substance listed; conditions: 101 kPa, Liquid, x2 = 0; for speed of sound: Pulse-echo method; for mass density: Vibrating tube method

SMILES	speed of sound ([1]; 298.15 K)	mass density ([1]; 298.15 K)	speed of sound ([1]; 303.15 K)	mass density ([1]; 303.15 K)	speed of sound ([1]; 308.15 K)	mass density ([1]; 308.15 K)	speed of sound ([2]; 298.15 K)	mass density ([2]; 298.15 K)	speed of sound ([2]; 303.15 K)	mass density ([2]; 303.15 K)	speed of sound ([2]; 308.15 K)	mass density ([2]; 308.15 K)
C1COCCO1 [1,4-dioxane]	1346 ± 1.1 m/s	1027.9 ± 1 kg/m3	1324.4 ± 1.1 m/s	1022.3 ± 1 kg/m3	1302.5 ± 1.1 m/s	1016.6 ± 1 kg/m3	–	–	–	–	–	–
C1COCO1 [1,3-dioxolane] + Cc1ccccc1Cl	–	–	–	–	–	–	1338.7 ± 1.1 m/s	1058.9 ± 1 kg/m3	1316.8 ± 1 m/s	1052.6 ± 1 kg/m3	1294.7 ± 1 m/s	1046.3 ± 1 kg/m3
C1CCOCC1 [tetrahydropyran] + Cc1ccccc1Cl	–	–	–	–	–	–	1269.8 ± 1 m/s	879.13 ± 1 kg/m3	1246.8 ± 1 m/s	873.99 ± 1 kg/m3	1224.4 ± 1 m/s	868.83 ± 1 kg/m3
C1CCOCC1 [tetrahydropyran]	1269.8 ± 1 m/s	879.13 ± 1 kg/m3	1246.8 ± 1 m/s	873.99 ± 1 kg/m3	1224.4 ± 1 m/s	868.83 ± 1 kg/m3	–	–	–	–	–	–
Cc1ccccc1Cl [2-chlorotoluene]	1298.7 ± 1.2 m/s	1077.3 ± 1 kg/m3	1280.7 ± 1.2 m/s	1072.5 ± 1 kg/m3	1262.7 ± 1.2 m/s	1067.6 ± 1 kg/m3	–	–	–	–	–	–
C1COCO1 [1,3-dioxolane]	1338.7 ± 1.1 m/s	1058.9 ± 1 kg/m3	1316.8 ± 1 m/s	1052.6 ± 1 kg/m3	1294.7 ± 1 m/s	1046.3 ± 1 kg/m3	–	–	–	–	–	–
C1COCCO1 [1,4-dioxane] + Cc1ccccc1Cl	–	–	–	–	–	–	1346 ± 1.1 m/s	1027.9 ± 1 kg/m3	1324.4 ± 1.1 m/s	1022.3 ± 1 kg/m3	1302.5 ± 1.1 m/s	1016.6 ± 1 kg/m3

Reference: the NIST ThermoML archive (doi:10.1021/je400722h)
